Results reported in patent US20220380383A1, “NEUROPROTECTIVE PDI MODULATING SMALL MOLECULES AND METHODS OF USE THEREOF” (THE TRUSTEES OF COLUMBIA UNIVERSITY IN THE CITY OF NEW YORK, priority 2018, published 2022).
≈ marks a conversion by molar mass, not a printed value. Where “and” joins values, the source holds several entries; their conditions need not be identical. Equal entries are not always repeated. Where two headings read alike, the source gives them in different places.

Experiments:
15N-labeled PDIa = target: T1, 15N-labeled PDIa (Homo sapiens, UniProt P07237); experiment: 1H-15N HSQC NMR of PDIa; type: binding
T1 construct: His6 (N, cleaved yes); made in house; host or cells: Escherichia coli BL21-Gold (DE3), M9 minimal medium with 15NH4Cl
T1 sequence (P07237 18-134): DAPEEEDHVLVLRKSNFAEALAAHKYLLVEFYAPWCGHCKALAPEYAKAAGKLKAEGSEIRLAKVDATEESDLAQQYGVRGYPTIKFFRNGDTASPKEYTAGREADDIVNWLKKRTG
Method: The ^1H-^15N HSQC spectra were performed on Bruker Avance III 500 Ascend (500 MHz) spectrometers at 300 K. The uniformly ^15N-labeled PDIa was dissolved at 50 μM or 100 μM in 90% H2O/10% D20 (v/v), pH 5.1. The ^1H carrier frequency was positioned at the water resonance. The ^15N carrier frequency was positioned at 115 ppm. The spectral width in the ^1H dimension was 7500 Hz and the width in ω1 (^15N) dimension was 1824.6 Hz. Suppression of water signal was accomplished using the WATERGATE sequence. Heteronuclear decoupling was accomplished using GARP decoupling scheme.

PC12 mHTTQ103 cells = experiment: Rescue of PC12 cells from mHTTQ103-induced cell death; type: cell-based, rat; details: for EC50: Rattus norvegicus, PC-12
[1] = Solubility (stock solvent)
[2] = target: T2, human catalytic PDI A1 a domain (PDIa) (Homo sapiens, UniProt P07237); experiment: Isothermal titration calorimetry (ITC) binding to PDIa
T2 construct: made in house; host or cells: Escherichia coli BL21-Gold (DE3)
T2 sequence (P07237 18-134): as above

[3] = system: uninduced PC12 cells not expressing mHTTQ103; experiment: General cell toxicity in PC12 cell culture assay; type: cell-based
Method: Neuroprotection was assessed by each compound's ability to rescue cells from mutant-huntingtin-induced cell death (“Ind Q103” cells; blue). General cell toxicity of each compound was assessed in uninduced cells not expressing mutant-huntingtin protein (“Unind Q103” cells; red). NMP, DMSO, LOC14 in NMP and LOC14 in DMSO were used as controls.
Data from cells induced to express mHTT^Q103 (blue) and cells not expressing mHTT^Q103 (red) are plotted as mean percent of DMSO-treated uninduced cells±SD with n=3.
The follow-up testing of primary screen hits was performed in a similar way. Fresh powder stocks of primary hits were re-ordered from vendors, dissolved in DMSO and tested in a two-fold serial dilution across 10 wells in both tebufenozide-induced and uninduced PC12 mHTT^Q103 cells. Dose-response curves were plotted as mean±SD and fit to either four-parameter sigmoidal (for uninduced cells) or bell-shaped (induced) function using Prism (GraphPad Software).

[4] = cited from earlier work
HTR3A = target: T3, HTR3A (Homo sapiens, UniProt P46098); experiment: Safety47 panel ion channel HTR3A; type: cell-based; details: 3 μM
T3 construct: CEREP (CRO panel)
T3 sequence (P46098 24-478): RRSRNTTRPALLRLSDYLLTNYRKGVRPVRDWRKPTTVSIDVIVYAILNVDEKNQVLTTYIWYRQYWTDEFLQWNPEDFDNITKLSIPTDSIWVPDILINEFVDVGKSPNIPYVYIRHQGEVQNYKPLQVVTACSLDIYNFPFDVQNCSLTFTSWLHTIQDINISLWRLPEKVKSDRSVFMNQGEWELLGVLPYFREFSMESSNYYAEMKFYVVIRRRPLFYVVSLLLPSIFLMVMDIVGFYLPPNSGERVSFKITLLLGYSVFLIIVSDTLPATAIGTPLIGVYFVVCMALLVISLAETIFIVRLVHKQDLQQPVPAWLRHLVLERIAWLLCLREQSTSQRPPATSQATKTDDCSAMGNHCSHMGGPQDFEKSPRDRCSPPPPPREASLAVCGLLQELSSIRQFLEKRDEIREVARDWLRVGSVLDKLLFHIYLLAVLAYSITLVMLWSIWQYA
Description: (§1) LOC14 was also submitted for testing in CEREP's Safety47 panel. CEREP is a CRO specializing in preclinical research, discovery and development of new pharmaceutical drugs.

Adenosine A1 = Adenosine A1 (Homo sapiens, UniProt P30542); experiment: Off-target panel, Adenosine A1; type: binding; details: Conc. 3 μM
Chain of Adenosine A1 (P30542 whole entry): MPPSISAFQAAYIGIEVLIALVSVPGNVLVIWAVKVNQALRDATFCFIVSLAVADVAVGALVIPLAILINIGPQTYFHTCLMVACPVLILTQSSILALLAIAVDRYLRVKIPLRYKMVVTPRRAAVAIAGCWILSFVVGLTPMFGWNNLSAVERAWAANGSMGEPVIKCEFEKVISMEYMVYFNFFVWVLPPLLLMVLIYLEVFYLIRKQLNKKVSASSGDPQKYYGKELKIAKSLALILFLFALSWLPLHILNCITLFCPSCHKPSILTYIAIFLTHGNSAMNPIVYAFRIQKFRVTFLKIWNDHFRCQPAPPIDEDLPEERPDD

CAV1.2 = target: T4, CAV1.2 (Homo sapiens, UniProt Q13936); experiment: Safety47 panel ion channel CAV1.2; type: cell-based; details: Blocker mode; 3 μM
T4 construct: CEREP (CRO panel)
Description: as §1

AR = target: T5, AR (Homo sapiens, UniProt P10275); experiment: Safety47 panel nuclear hormone receptor AR; type: cell-based; details: 3 μM
T5 construct: CEREP (CRO panel)
T5 sequence (P10275 whole entry): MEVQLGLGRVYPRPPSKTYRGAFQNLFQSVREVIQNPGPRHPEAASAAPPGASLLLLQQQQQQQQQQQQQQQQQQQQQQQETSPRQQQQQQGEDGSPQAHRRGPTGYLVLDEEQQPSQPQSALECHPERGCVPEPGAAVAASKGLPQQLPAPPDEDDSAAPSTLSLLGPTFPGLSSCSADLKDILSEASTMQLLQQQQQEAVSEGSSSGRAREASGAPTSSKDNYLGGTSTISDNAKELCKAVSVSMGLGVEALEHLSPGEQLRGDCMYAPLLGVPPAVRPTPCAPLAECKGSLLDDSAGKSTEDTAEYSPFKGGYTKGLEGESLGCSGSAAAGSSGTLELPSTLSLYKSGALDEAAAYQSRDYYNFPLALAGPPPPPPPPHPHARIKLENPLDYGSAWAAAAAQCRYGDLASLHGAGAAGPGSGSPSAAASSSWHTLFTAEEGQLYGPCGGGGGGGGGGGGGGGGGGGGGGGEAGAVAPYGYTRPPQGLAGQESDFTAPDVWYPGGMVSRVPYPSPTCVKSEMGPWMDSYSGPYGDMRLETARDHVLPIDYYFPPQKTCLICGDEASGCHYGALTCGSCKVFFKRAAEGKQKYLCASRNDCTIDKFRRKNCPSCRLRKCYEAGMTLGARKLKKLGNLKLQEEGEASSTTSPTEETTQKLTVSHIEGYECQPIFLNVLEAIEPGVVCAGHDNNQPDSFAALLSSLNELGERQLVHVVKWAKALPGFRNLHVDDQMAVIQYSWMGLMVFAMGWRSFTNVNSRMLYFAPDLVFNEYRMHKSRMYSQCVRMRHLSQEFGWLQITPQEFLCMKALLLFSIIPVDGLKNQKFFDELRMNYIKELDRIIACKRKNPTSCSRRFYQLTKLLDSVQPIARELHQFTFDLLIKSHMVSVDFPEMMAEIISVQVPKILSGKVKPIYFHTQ
Description: as §1

DAT = target: T6, DAT (Homo sapiens, UniProt Q01959); experiment: Safety47 panel transporter DAT; type: cell-based; details: Blocker mode; 3 μM
T6 construct: CEREP (CRO panel)
T6 sequence (Q01959 whole entry): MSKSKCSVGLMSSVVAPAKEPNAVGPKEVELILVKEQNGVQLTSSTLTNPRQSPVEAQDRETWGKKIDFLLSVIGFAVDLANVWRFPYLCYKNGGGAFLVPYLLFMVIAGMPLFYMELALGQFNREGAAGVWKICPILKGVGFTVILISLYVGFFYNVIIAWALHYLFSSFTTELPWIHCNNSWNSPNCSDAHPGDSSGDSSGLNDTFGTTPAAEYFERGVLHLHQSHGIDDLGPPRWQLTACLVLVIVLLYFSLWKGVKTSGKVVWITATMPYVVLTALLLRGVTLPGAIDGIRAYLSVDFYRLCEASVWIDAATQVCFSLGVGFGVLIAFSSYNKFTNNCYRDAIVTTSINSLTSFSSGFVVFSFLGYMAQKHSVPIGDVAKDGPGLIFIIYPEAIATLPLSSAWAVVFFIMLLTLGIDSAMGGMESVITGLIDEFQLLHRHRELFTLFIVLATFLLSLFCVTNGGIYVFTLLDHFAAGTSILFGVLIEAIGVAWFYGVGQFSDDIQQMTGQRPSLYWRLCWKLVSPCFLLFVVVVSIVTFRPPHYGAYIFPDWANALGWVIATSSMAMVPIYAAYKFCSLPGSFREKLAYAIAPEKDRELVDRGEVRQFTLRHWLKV
Description: as §1

ADORA2A = target: T7, ADORA2A (Homo sapiens, UniProt P29274); experiment: Safety47 panel GPCR ADORA2A; type: cell-based; details: 3 μM
T7 construct: CEREP (CRO that ran the panel)
T7 sequence (P29274 whole entry): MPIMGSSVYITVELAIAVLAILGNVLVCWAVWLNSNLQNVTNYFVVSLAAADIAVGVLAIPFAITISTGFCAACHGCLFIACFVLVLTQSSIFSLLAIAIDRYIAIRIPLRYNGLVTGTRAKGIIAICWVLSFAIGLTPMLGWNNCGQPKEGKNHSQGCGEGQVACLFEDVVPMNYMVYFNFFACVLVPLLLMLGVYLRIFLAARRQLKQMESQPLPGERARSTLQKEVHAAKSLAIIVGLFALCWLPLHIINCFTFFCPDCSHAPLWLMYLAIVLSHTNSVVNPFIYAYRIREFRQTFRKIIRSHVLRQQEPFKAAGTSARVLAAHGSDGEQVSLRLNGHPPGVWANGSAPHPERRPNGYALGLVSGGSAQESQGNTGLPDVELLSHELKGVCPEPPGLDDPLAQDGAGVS
Description: as §1

KvLQT1/minK = target: T8, KvLQT1/minK (Homo sapiens, UniProt P51787); experiment: Safety47 panel ion channel KvLQT1/minK; type: cell-based; details: 3 μM
T8 construct: CEREP (CRO panel)
Description: as §1

GABAA = experiment: Safety47 panel ion channel GABAA; type: cell-based, human; details: 3 μM
Description: as §1

CYP1A2 = target: T9, CYP1A2 (Homo sapiens, UniProt P05177); experiment: CYP450 inhibition, CYP1A2; type: in vitro ADME; details: high concentration of 30 μM
T9 construct: Cyprotex (CRO)
T9 sequence (P05177 whole entry): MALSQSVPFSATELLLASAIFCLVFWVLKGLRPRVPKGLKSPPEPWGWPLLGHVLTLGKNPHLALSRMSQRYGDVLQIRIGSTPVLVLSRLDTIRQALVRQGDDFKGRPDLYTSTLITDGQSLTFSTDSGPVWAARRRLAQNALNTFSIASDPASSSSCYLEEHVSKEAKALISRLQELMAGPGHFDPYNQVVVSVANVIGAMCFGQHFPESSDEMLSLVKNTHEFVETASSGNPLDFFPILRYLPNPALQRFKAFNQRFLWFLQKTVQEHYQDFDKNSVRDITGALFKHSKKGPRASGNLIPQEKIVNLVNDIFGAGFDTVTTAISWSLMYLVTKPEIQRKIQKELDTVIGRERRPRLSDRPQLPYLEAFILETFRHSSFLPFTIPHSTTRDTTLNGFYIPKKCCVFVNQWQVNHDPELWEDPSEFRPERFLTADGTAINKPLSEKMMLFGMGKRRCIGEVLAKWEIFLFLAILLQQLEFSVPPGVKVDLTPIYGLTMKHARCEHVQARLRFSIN

Adrenergic β1 = Adrenergic β1 (Homo sapiens, UniProt P08588); experiment: Off-target panel, Adrenergic β1; type: binding; details: Conc. 3 μM
Chain of Adrenergic β1 (P08588 whole entry): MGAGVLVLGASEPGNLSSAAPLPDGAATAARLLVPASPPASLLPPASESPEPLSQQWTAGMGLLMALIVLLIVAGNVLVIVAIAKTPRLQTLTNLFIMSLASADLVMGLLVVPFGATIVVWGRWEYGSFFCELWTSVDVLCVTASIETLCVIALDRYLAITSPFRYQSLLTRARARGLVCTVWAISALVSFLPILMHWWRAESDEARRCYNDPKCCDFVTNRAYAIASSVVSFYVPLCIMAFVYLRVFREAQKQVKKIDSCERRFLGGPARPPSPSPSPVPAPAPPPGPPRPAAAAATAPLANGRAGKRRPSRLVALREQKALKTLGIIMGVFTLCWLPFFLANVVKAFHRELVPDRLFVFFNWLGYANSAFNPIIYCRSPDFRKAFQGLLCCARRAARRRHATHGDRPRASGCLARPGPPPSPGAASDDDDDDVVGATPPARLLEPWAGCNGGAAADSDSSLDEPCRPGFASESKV

Dopamine D2S = Dopamine D2S (Homo sapiens, UniProt P14416); experiment: Off-target panel, Dopamine D2S; type: binding; details: Conc. 3 μM
Chain of Dopamine D2S (P14416 1-414 isoform P14416-2): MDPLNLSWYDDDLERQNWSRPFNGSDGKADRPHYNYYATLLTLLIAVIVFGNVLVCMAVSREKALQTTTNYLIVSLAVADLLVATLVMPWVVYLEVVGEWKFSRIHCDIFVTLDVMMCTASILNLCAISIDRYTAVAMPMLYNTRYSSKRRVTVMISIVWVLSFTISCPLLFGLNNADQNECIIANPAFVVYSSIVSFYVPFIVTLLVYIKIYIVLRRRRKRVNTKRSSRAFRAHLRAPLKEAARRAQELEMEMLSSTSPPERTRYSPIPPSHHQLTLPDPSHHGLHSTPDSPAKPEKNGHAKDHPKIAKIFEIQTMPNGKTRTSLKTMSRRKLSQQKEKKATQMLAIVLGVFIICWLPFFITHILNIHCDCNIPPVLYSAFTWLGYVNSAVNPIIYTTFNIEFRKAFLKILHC

Opiate (OP3, MOP) = Opiate (OP3, MOP) (Homo sapiens, UniProt P35372); experiment: Off-target panel, Opiate; type: binding; details: Conc. 3 μM
AChE = target: T10, AChE (Homo sapiens, UniProt P22303); experiment: Safety47 panel non-kinase enzyme AChE; type: biochemical; details: Inhibitor mode; 3 μM
T10 construct: CEREP (CRO panel)
Description: as §1

[5] = target: T11, CHRM2 (muscarinic acetylcholine receptor M2) (Homo sapiens, UniProt P08172); experiment: Safety47 panel GPCR CHRM2; type: cell-based
T11 construct: CEREP (CRO that ran the panel)
T11 sequence (P08172 whole entry): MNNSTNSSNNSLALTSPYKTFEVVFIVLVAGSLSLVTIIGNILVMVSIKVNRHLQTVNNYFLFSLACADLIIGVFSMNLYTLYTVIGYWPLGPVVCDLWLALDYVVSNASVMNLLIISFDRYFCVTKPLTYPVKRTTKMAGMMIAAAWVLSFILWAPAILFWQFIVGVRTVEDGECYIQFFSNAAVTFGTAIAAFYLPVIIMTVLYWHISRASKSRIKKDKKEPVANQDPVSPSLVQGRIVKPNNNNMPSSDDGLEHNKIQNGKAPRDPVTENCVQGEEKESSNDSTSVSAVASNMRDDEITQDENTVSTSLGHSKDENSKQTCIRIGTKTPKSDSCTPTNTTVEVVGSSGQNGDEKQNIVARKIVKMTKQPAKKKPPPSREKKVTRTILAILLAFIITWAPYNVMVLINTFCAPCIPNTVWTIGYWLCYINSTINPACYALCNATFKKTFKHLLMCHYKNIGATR
Description: as §1

COX2 = target: T12, COX2 (Homo sapiens, UniProt P35354); experiment: Safety47 panel non-kinase enzyme COX2; type: biochemical; details: Inhibitor mode; 3 μM
T12 construct: CEREP (CRO panel)
Description: as §1

[6] = Tables 5-13, PC12 cells, read-out: EC50
[7] = rescue from mHTTQ103 induced cell death
[8] = Tables 5-13, solvent not given (DMSO in Table 1)

## O=C(C1CC1)N1CCN(Cn2sc3c(F)cccc3c2=O)CC1 [LC-43]
15N-labeled PDIa
  chemical shift changes in PDIa (1H-15N HSQC): same chemical shift changes in the active site as induced by LOC14
PC12 mHTTQ103 cells; [6]
  EC50: 7410 nM
PC12 mHTTQ103 cells; Tables 5-13, PC12 cells
  Max Viability (%): 56%
PC12 mHTTQ103 cells; [7]
  PC12 cells Max % Viability: 56.48%
[1]
  Solubility: 100 mM in DMSO
[1]; [8]
  Solubility: 100 mM (≈ 33.5 mg/mL)
[2]
  binding to PDI by ITC: showed no binding to the protein by ITC
[2]; N/A = not active
  ITC KD: KD = N/A irreversible or not active
[3]
  toxicity in PC12 cell culture assay: decreased cellular toxicity

## O=C(C1CC1)N1CCN(Cn2sc3ccccc3c2=O)CC1 [LOC14]
[4]; in mice
  tolerated dose: 20 mg/kg
[4]; mouse, in vivo, po
  oral bioavailability: orally bioavailable
[4]; mouse, in vivo
  blood-brain-barrier penetration: blood-brain-barrier penetrant
[4]; via oral gavage
  half-life in the brain: 2.2 h
PC12 mHTTQ103 cells; [6]
  EC50: 352 nM
PC12 mHTTQ103 cells; rescue from mHTTQ103 induced cell death, read-out: PC12 cells EC50
  EC50: 352 nM
PC12 mHTTQ103 cells; Tables 5-13, PC12 cells
  Max Viability (%): 66%
PC12 mHTTQ103 cells; protection from mHTT toxicity, FIG. 13A
  EC100: 3.1 µM
PC12 mHTTQ103 cells; [7]
  PC12 cells Max % Viability: 66.25%
HTR3A; Blocker mode
  Average: 0.0
HTR3A; Opener mode
  Average: 2.5
Adenosine A1
  inhibition at 3 µM: 8%
CAV1.2
  Average: 1.2
[1]
  Solubility: 100 mM in DMSO
[1]; [8]
  Solubility: 100 mM (≈ 31.7 mg/mL)
AR; Agonist mode
  Average: 0.0
AR; Antagonist mode
  Average: 5.4
DAT
  Average: 0.0
ADORA2A; Agonist mode
  Average % Response: 2.6%
ADORA2A; Antagonist mode
  Average % Response: 2.4%
KvLQT1/minK; Blocker mode
  Average: 0.0
KvLQT1/minK; Opener mode
  Average: 9.8
GABAA; Blocker mode
  Average: 5.1
GABAA; Opener mode
  Average: 0.0
CYP1A2
  inhibition of CYP1A2: inhibits
Adrenergic β1
  inhibition at 3 µM: 7%
Dopamine D2S
  inhibition at 3 µM: 0%
Opiate (OP3, MOP)
  inhibition at 3 µM: -1%
AChE
  Average: 2.8
[5]
  activity (response) against muscarinic acetylcholine receptor M2: < 95% and 70%
COX2
  Average: 2.8
